The record followed here is US8921546B2, “Imidazolothiazole compounds for the treatment of disease” (Ambit Biosciences Corporation, priority 2006, dated 2014).

One test has as its system MV4-11 cells. Kind of test: Cellular proliferation assay (MTS), MV4-11. Format: cell-based. The conditions noted are these: Homo sapiens. An excerpt:
Cellular Proliferation Assay
Cancer cell viability and proliferation can be evaluated using a tetrazolium salt reduction cell-based assay. In viable cells, this colorimetric assay can measure mitochondrial reduction of a tetrazolium component (MTS) into an […] formazan product.
This cell line was used to determine the ability of the compounds provided herein to inhibit Flt3 in intact cells. The RS4-11 cell line, which expresses the wild-type (WT) receptor, is also used as a control to verify the test compound's ability to inhibit the FLT3 receptor containing the ITD mutation.
MV4-11 cells were plated at 10,000 cells per well in DMEM medium with 0.5% serum. RS4-11 cells were plated at 20,000 cells per well in RPMI with 0.5% serum. […] An aliquot from each well of the compound plate was transferred to the plated cells and then incubated @ 37° C. in 5% CO2 (for 3 days for the MV4-11 cells, 2 days for the RS4-11 cells).
MTS tetrazolium compound (Owen's reagent) was thawed in a H2O bath. 20 μl of MTS tetrazolium was added to each well of optical plate and the cells were incubated @ 37° C. in 5% CO2 for 2 hours.

A further test addresses T1, FLT3 (Homo sapiens, UniProt P36888).
T1 construct: made in house
T1 sequence (P36888 27-993): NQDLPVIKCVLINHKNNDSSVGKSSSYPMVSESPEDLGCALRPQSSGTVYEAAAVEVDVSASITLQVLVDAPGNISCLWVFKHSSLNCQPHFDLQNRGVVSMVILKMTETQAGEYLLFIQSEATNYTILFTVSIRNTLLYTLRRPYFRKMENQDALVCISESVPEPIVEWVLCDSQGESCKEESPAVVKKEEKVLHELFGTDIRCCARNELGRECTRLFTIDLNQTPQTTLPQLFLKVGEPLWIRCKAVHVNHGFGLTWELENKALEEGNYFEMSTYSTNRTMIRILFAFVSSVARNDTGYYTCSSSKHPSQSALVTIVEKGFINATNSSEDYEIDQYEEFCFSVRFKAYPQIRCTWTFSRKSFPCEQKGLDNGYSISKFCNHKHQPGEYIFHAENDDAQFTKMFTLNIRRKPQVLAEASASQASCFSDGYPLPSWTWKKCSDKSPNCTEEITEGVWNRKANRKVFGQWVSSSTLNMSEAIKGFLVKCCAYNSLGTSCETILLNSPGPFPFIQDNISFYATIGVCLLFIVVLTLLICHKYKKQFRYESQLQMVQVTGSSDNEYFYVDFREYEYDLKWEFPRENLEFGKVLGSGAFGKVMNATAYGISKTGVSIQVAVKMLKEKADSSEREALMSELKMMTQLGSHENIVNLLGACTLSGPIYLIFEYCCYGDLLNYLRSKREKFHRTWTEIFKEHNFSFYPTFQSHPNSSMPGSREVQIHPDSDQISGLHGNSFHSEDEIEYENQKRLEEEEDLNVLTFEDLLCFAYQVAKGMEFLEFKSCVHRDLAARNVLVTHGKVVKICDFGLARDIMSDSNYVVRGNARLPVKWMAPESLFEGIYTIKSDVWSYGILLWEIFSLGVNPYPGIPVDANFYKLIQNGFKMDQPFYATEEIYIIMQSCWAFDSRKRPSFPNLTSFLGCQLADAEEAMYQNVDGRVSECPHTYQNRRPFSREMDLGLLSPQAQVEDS
Kind of test: Binding constant (Kd) measurement, phage-displayed kinase competition binding assay, FLT3. Here is the method: (§1) Binding Constant (Kd) Measurements for Small-Molecule-Kinase Interactions
(§2) By testing across a large class of protein kinases, specificity of the kinase inhibitors provided herein is also determined. The components of the assays include various human kinases expressed as fusions to T7 bacteriophage particles and immobilized ligands that bind to the ATP site of the kinases. […] If the test compound binds the kinase, it competes with the immobilized ligand and prevents binding to the solid support. […] The results are read out by quantitating the amount of fusion protein bound to the solid support, which is accomplished by either traditional phage plaque assays or by quantitative PCR (qPCR) using the phage genome as a template.

In another test the target is T2, KIT (Homo sapiens, UniProt P10721).
T2 construct: made in house
The test can be described thus: Binding constant (Kd) measurement, phage-displayed kinase competition binding assay, KIT. Here is the method: as §1, §2

A further test addresses T3, CSF1R (Homo sapiens, UniProt P07333).
T3 construct: made in house
The test can be described thus: Binding constant (Kd) measurement, phage-displayed kinase competition binding assay, CSF1R. Here is the method: as §1, §2

[1] abbreviates: MV4-11 cells, 72 hour incubation, MTS, read-out: Cellular Assay MV-proliferation IC50.
[2] abbreviates: MV4-11, 72 h, read-out: Cellular Assay MV-proliferation IC50 (nM).
Where [3] appears, read: read-out: Binding Assay FLT3 Kd.

Where a name gives a salt, the structure may show the parent alone. Read-outs that look alike come from different tables or passages of the source. Some results are limits rather than exact numbers.

T2 sequence (P10721 26-976): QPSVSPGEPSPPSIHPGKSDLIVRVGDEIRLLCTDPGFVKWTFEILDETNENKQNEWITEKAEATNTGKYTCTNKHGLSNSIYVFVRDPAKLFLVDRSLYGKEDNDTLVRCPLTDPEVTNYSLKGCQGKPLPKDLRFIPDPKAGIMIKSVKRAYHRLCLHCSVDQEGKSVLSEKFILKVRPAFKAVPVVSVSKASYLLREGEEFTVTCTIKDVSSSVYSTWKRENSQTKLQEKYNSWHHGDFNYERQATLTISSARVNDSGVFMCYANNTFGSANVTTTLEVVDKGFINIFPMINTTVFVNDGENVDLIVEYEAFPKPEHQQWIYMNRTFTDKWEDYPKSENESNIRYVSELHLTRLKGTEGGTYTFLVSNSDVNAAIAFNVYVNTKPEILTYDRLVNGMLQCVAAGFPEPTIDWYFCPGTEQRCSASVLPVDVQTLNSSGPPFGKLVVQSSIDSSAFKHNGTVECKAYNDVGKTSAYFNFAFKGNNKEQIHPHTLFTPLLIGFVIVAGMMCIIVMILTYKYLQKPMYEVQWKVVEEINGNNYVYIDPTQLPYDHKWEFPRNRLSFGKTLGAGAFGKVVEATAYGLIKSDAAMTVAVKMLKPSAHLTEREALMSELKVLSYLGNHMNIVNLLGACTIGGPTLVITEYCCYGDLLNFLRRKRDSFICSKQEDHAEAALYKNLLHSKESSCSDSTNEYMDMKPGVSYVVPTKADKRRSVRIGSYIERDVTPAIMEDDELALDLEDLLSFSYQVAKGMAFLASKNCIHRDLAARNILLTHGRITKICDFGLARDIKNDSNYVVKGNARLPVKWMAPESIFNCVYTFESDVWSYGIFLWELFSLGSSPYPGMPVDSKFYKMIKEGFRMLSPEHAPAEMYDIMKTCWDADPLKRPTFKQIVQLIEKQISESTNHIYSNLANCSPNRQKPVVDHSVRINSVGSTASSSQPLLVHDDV
T3 sequence (P07333 20-972): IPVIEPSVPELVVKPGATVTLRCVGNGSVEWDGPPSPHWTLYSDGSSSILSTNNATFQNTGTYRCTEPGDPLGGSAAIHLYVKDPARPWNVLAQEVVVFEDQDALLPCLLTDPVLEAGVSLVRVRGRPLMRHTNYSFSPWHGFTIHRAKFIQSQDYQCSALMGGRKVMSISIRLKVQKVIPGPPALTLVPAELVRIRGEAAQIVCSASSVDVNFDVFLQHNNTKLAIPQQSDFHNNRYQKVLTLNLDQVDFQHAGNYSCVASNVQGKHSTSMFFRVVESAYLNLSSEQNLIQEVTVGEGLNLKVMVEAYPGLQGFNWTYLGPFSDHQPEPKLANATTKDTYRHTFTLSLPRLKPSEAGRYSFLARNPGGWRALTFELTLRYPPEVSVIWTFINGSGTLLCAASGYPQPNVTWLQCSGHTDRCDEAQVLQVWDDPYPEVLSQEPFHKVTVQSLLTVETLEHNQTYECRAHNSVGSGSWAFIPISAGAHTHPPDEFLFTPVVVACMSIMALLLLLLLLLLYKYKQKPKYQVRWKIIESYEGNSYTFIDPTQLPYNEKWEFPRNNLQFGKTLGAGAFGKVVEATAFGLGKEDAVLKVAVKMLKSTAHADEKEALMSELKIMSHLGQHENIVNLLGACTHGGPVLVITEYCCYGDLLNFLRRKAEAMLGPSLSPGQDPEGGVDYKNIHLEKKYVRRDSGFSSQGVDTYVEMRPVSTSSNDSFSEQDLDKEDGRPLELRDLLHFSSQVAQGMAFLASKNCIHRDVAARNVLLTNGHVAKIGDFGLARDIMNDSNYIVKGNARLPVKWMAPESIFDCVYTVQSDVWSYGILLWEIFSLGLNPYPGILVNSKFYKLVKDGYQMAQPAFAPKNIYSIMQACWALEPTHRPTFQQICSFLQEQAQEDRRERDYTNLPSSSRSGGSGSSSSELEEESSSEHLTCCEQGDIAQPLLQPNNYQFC

In general, Kd refers to the constant that tells how readily two partners part at equilibrium. With `CCN(CC)CCOc1ccc2c(c1)sc1nc(-c3ccc(NC(=O)Nc4cc(C(C)(C)C)on4)cc3)cn12` [Compound B2, 1-(5-tert-Butyl-isoxazol-3-yl)-3-{4-[7-(2-diethylamino-ethoxy)-benzo[d]imidazo[2,1-b]thiazol-2-yl]-phenyl}-urea], the IC50 in the test on MV4-11 cells (setting [1]) was less than 10 nM. For the same compound, the equilibrium dissociation constant (Kd) at FLT3 and at KIT was less than 0.01 µM each time.

For `CC(C)(C)c1cc(NC(=O)Nc2ccc(-c3cn4c(n3)sc3cc(OCCN5CCOCC5)ccc34)cc2)no1` [Compound B1, N-(5-tert-Butyl-isoxazol-3-yl)-N′-{4-[7-(2-morpholin-4-yl-ethoxy)imidazo[2,1-b][1,3]benzothiazol-2-yl]phenyl}urea], the IC50 in the test with MV4-11 cells (setting [2]) was less than 10 nM.

As to `CC(C)(C)c1cc(NC(=O)Nc2ccc(-c3cn4c(n3)sc3cc(CC(=O)NCCN5CCCC5)ccc34)cc2)no1` [Compound C15, 2-(2-{4-[3-(5-tert-butyl-isoxazol-3-yl)-ureido]-phenyl}-benzo[d]imidazo[2,1-b]thiazol-7-yl)-N-(2-pyrrolidin-1-yl-ethyl)-acetamide hydrochloride], the IC50 in the test with MV4-11 cells (setting [1]) is less than 10 nM. The Kd is 0.01 to 0.1 µM at CSF1R and less than 0.01 µM on KIT.

On to `CC(C)(C)c1cc(NC(=O)Nc2ccc(-c3cn4c(n3)sc3cc(N5CCOCC5)ccc34)cc2)no1` [Compound A6, 1-(5-tert-Butyl-isoxazol-3-yl)-3-[4-(7-morpholin-4-yl-benzo[d]imidazo[2,1-b]thiazol-2-yl)-phenyl]-urea], for which the IC50 in the test on MV4-11 cells (setting [1]) was less than 10 nM. The Kd on FLT3 is less than 0.01 µM.

With `CC(C)(C)c1cc(NC(=O)Nc2ccc(-c3cn4c(n3)sc3cc(F)ccc34)cc2)no1` [Compound A2, 1-(5-tert-butyl-isoxazol-3-yl)-3-[4-(7-fluoro-benzo[d]imidazo[2,1-b]thiazol-2-yl)-phenyl]-urea], in the test on MV4-11 cells (setting [1]), the IC50 was less than 10 nM. At FLT3, this compound came in with a dissociation constant (Kd) of 0.01 to 0.1 µM.

On to `COc1ccc2c(c1)sc1nc(-c3ccc(NC(=O)Nc4cc(C(C)(C)C)on4)cc3)cn12` [Compound A5, 1-(5-tert-butyl-isoxazol-3-yl)-3-[4-(7-methoxy-benzo[d]imidazo[2,1-b]thiazol-2-yl)-phenyl]-urea], for which the IC50 in the test on MV4-11 cells (setting [1]) is less than 10 nM. Moreover, the Kd at FLT3 is less than 0.01 µM.

With `CC(C)(C)c1cc(NC(=O)Nc2ccc(-c3cn4c(n3)sc3cc(CC(=O)O)ccc34)cc2)no1` [Compound C2, 2-{2-[4-({[(5-tert-Butylisoxazol-3-yl)amino]carbonyl}amino)phenyl]imidazo[2,1-b][1,3]benzothiazol-7-yl}acetic acid], the IC50 in the test on MV4-11 cells (setting [1]) was less than 10 nM. The dissociation constant Kd at FLT3 and on KIT was less than 0.01 µM throughout.

Regarding `CN1CCN(CCOc2ccc3c(c2)sc2nc(-c4ccc(NC(=O)Nc5cc(C(C)(C)C)on5)cc4)cn23)CC1` [Compound B4, 1-(5-tert-Butyl-isoxazol-3-yl)-3-(4-{7-[2-(4-methyl-piperazin-1-yl)-ethoxy]-benzo[d]imidazo[2,1-b]thiazol-2-yl}-phenyl)-urea hydrochloride], the IC50 in the test with MV4-11 cells (setting [1]) was less than 10 nM. Further, the dissociation constant (Kd) at FLT3 (setting [3]) and at KIT was less than 0.01 µM throughout.

With `CCN1CCN(C(=O)Cc2ccc3c(c2)sc2nc(-c4ccc(NC(=O)Nc5cc(C(C)(C)C)on5)cc4)cn23)CC1` [Compound C17, 1-(5-tert-butyl-isoxazol-3-yl)-3-(4-{7-[2-(4-ethyl-piperazin-1-yl)-2-oxo-ethyl]benzo[d]imidazo[2,1-b]thiazol-2-yl}-phenyl)-urea hydrochloride], the IC50 in the test on MV4-11 cells (setting [2]) was less than 10 nM. Further, the values for the equilibrium dissociation constant (Kd) on CSF1R and at KIT were 0.01 to 0.1 µM and less than 0.01 µM, respectively.

With `CCOC(=O)Cc1ccc2c(c1)sc1nc(-c3ccc(NC(=O)Nc4cc(C(C)(C)C)on4)cc3)cn12` [Compound C1, Ethyl 2-{2-[4-({[(5-tert-Butylisoxazol-3-yl)amino]carbonyl}amino)phenyl]imidazo[2,1-b][1,3]benzothiazol-7-yl}acetate], in the test on MV4-11 cells (setting [1]), the IC50 is less than 10 nM. Besides, the dissociation constant (Kd) at FLT3 and at KIT was less than 0.01 µM each time.

For the compound `CC(C)(C)c1cc(NC(=O)Nc2ccc(-c3cn4c(n3)sc3cc(C(=O)NCCN5CCCCC5)ccc34)cc2)no1` [Compound C20, 2-{4-[3-(5-tert-butyl-isoxazol-3-yl)-ureido]-phenyl}-imidazo[2,1-b][1,3]benzothiazole-7-carboxylic Acid (2-Piperidin-1-yl-ethyl)-amide hydrochloride], the IC50 with MV4-11 cells (setting [1]) is less than 10 nM. The dissociation constant Kd at CSF1R was 0.01 to 0.1 µM; on KIT, less than 0.01 µM.

Consider `Cc1ccc2c(c1)sc1nc(-c3ccc(NC(=O)Nc4cc(C(C)(C)C)on4)cc3)cn12` [Compound A3, 1-(5-tert-butyl-isoxazol-3-yl)-3-[4-(7-methyl-benzo[d]imidazo[2,1-b]thiazol-2-yl)-phenyl]-urea], for which the IC50 with MV4-11 cells (setting [1]) was less than 10 nM. The same compound gave a dissociation constant Kd on FLT3 of less than 0.01 µM.

As for `CC(C)(C)c1cc(NC(=O)Nc2ccc(-c3cn4c(n3)sc3ccccc34)cc2)no1` [Compound A1], in the test on MV4-11 cells (setting [1]), the IC50 is less than 10 nM. The Kd at FLT3 (setting [3]) is less than 0.01 µM.

Take `CCN1CCN(CCCc2ccc3c(c2)sc2nc(-c4ccc(NC(=O)Nc5cc(C(C)(C)C)on5)cc4)cn23)CC1` [Compound D1, N-(5-tert-Butyl-isoxazol-3-yl)-N′-(4-{7-[3-(4-ethyl-piperazin-1-yl)propyl]imidazo[2,1-b][1,3]benzothiazol-2-yl}phenyl)urea hydrochloride]: the IC50 in the test on MV4-11 cells (setting [1]) is less than 10 nM. On KIT, this compound registered a dissociation constant (Kd) of less than 0.01 µM.

As to `CN1CCN(c2ccc3c(c2)sc2nc(-c4ccc(NC(=O)Nc5cc(C(C)(C)C)on5)cc4)cn23)CC1` [Compound A7, 1-(5-tert-butyl-isoxazol-3-yl)-3-{4-[7-(4-methyl-piperazin-1-yl)-benzo[d]imidazo[2,1-b]thiazol-2-yl]-phenyl}-urea], the IC50 in the test with MV4-11 cells (setting [1]) is less than 10 nM. Besides, the Kd on FLT3 (setting [3]) is less than 0.01 µM.

Regarding `CC(C)(C)c1cc(NC(=O)Nc2ccc(-c3cn4c(n3)sc3cc(O)ccc34)cc2)no1` [Compound A4, 1-(5-tert-butyl-isoxazol-3-yl)-3-[4-(7-hydroxy-benzo[d]imidazo[2,1-b]thiazol-2-yl)-phenyl]-urea], the IC50 in the test with MV4-11 cells (setting [1]) was less than 10 nM. Further, the equilibrium dissociation constant (Kd) at FLT3 (setting [3]) was less than 0.01 µM.

In the case of `CC(C)(C)c1cc(NC(=O)Nc2ccc(-c3cn4c(n3)sc3cc(OC(=O)[C@@H]5CCCN5)ccc34)cc2)no1` [Compound B6, (2S)-pyrrolidine-2-carboxylic acid 2-{4-[3-(5-tert-butyl-isoxazol-3-yl)-ureido]-phenyl}-benzo[d]imidazo[2,1-b]thiazol-7-yl ester], the IC50 with MV4-11 cells (setting [1]) is less than 10 nM. Further, the Kd was less than 0.01 µM on FLT3 and 0.01 to 0.1 µM at KIT.

`CC(C)(C)c1cc(NC(=O)Nc2ccc(-c3cn4c(n3)sc3cc(OCCN5CCCCC5)ccc34)cc2)no1` [Compound B3, 1-(5-tert-Butyl-isoxazol-3-yl)-3-{4-[7-(2-piperidin-1-yl-ethoxy)-benzo[d]imidazo[2,1-b]thiazol-2-yl]-pheny}-urea hydrochloride]: the IC50 in the test on MV4-11 cells (setting [1]) was less than 10 nM. For the same compound, the dissociation constant Kd at FLT3 (setting [3]) and at KIT was less than 0.01 µM each time.

Regarding `CN1CCN(CCCOc2ccc3c(c2)sc2nc(-c4ccc(NC(=O)Nc5cc(C(C)(C)C)on5)cc4)cn23)CC1` [Compound B9, 1-(5-tert-Butyl-isoxazol-3-yl)-3-(4-{7-[3-(4-methyl-piperazin-1-yl)-propoxy]-benzo[d]imidazo[2,1-b]thiazol-2-yl}-phenyl)-urea], in the test on MV4-11 cells (setting [1]), the IC50 was less than 10 nM. Further, the Kd was less than 0.01 µM on FLT3 (setting [3]) and 0.01 to 0.1 µM at KIT.
